Assay results as given in US11738034B2, “Triphenylphosphonium-derivative compounds for eradicating cancer stem cells” (LUNELLA BIOTECH, INC., priority 2017, dated 2023).

Assays:
[1] = tested on: MCF-7 human breast cancer cells; test: ATP-depletion assay (CellTiter-Glo & Hoechst 33342) in MCF-7 cells; type: cell-based; conditions: for Hoechst staining (%) / ATP level (%): MCF-7 cell line, 50 μM treatment for 72 hours, normalized to control; for Hoechst staining (%): cell viability; for effect on ATP levels in initial screen (positive hit): MCF-7, ATP depletion screen of nine TPP-derivatives; for effect on ATP levels in validation (FIGS. 2-4): MCF-7 treated for 72 h
Excerpt: In order to identify new molecules that can be used to target mitochondria within CSCs, the inventors screened a variety of TPP-derivatives as described herein, by employing CellTiter-Glo to measure intracellular levels of ATP in adherent cancer cells (MCF-7) in 96-well plates. As 85% of cellular ATP is normally derived from mitochondrial metabolism, ATP levels are an excellent read-out to monitor mitochondrial function. In parallel, the same 96-well plates were also stained with Hoechst 33342, to measure DNA content, to gauge cell viability. Therefore, we randomly selected 9 TPP derivatives and subjected them to screening in our assay system.
With respect to the ATP-depletion assay (with CellTiter-Glo & Hoechst 33342), MCF-7 cells were treated with different TPP derivatives for 72 hours in a black 96-well plate then wells were washed with PBS and were stained with Hoechst 33342 dye at a final concentration of 10 μg/ml. Fluorescence was read by a plate reader at 355 nm (excitation), 460 nm (emission). After washing with PBS CellTiterGlo luminescent assay (Promega) was performed according to the manufacturer's protocols to determine intracellular ATP levels in the Hoechst dye stained cells. Both the fluorescent and luminescent data were normalized to control levels and were shown as percentage for comparison.

[2] = tested on: normal fibroblasts (hTERT-BJ1); test: Cell viability (Hoechst) and intracellular ATP levels in normal fibroblasts; type: cell-based, human; conditions: hTERT-BJ1, 1 μM, 72 h
Experimental: Cell viability and intracellular ATP levels were determined in the same treated samples. Hoechst staining (%) of hTERT-BJ1 human fibroblasts (black); ATP level (%) of hTERT-BJ1 human fibroblasts (dotted); Hoechst staining (%) of MCF-7 cells (inclined lines); ATP level (%) of MCF-7 cells (white). TPP treatments at 1 μM, 72 h. Data are represented as mean+/−SEM. *p<0.05; **p<0.01; indicates significance, all relative to the control.
With respect to cell culture and reagents, the human breast adenocarcinoma cell line (MCF-7) was from the American Type Culture Collection (ATCC). hTERT-BJ1 cells were from Clontech, Inc. MCF-7 and hTERT-BJ1 cells were grown in DMEM supplemented with 10% fetal bovine serum, GlutaMAX and 1% penicillin-streptomycin and incubated at 37 C in a humidified 5% CO2 incubator. The medium was changed 2-3 times/week. […]
With respect to the ATP-depletion assay (with CellTiter-Glo & Hoechst 33342), MCF-7 cells were treated with different TPP derivatives for 72 hours in a black 96-well plate then wells were washed with PBS and were stained with Hoechst 33342 dye at a final concentration of 10 μg/ml. Fluorescence was read by a plate reader at 355 nm (excitation), 460 nm (emission). […]

MCF-7 cells = test: Mitochondrial oxygen consumption rate (OCR), Seahorse XFe96; type: cell-based, human; conditions: MCF-7, Seahorse, FIGS. 6-8
Excerpt: Some embodiments of the present approach relate to identifying TPP-derivatives compounds that target mitochondria in CSCs and represent potential anti-cancer therapies. To further validate that the ATP level reduction of the TPP compounds was indeed due to the inhibition of mitochondrial function, we directly measured mitochondrial oxygen consumption rates (OCR) using the Seahorse XFe96 metabolic flux analyser.
FIG. 6 illustrates the impaired mitochondrial function of MCF-7 cells after treatment with TPP Compound 1. FIGS. 7A and 7B illustrate the impaired mitochondrial function of MCF-7 cells after treatment with either TPP Compound 2 or TPP Compound 3. […] Oxygen consumption rate (OCR) was measured with a Seahorse XF96 Extracellular Flux Analyzer. Data are represented as mean+/−SEM. […] For FIG. 6, **p<0.01; ***p<0.001; indicates significance, all relative to the control. […] For FIG. 7, **p<0.01; ***p<0.001; indicates significance, all relative to the control. […] And for FIG. 8, **p<0.01; ***p<0.001; indicates significance, all relative to the control.
For measuring the mitochondrial OCR, mitochondrial function was determined by using the XF Cell Mito Stress Test Kit (Seahorse Bioscience, MA, USA) with a Seahorse XFe96 Extracellular Flux Analyzer (Seahorse Bioscience, MA, USA). MCF-7 cells were seeded in a specialized 96-well tissue culture plate (XF96 microplate). The next day, the TPP derivatives were added and the plate was incubated for 72 hours. Before the experiment media was changed to XF base medium (including 1 mM pyruvate, 2 mM glutamine and 10 mM glucose), cells were incubated at 37° C. in a CO2-free atmosphere for one hour before measurement. After detection of basal OCR (an indicator for mitochondrial respiration) OCR responses were evaluated towards the application of oligomycin (1 μM), FCCP (600 nM), and the combination of antimycin (1 μM) and rotenone (1 μM). From these measurements various parameters of mitochondrial function were determined. To determine cell viability in the measured wells sulphorodamine (SRB) assay was performed. Oxygen consumption rate values were then normalized to the given SRB values.

MCF-7 breast CSCs = test: 3D Spheroid (mammosphere) assay, CSC propagation; type: cell-based, human; conditions: MCF-7, treated for 5 days in mammosphere media; read-out: IC-50, CSC propagation (mammosphere formation)
Experimental: Following validation, the inventors evaluated the effects of these TPP-derivative compounds on the propagation of CSCs, using the mammosphere assay as a read-out. […] The data presented in FIG. 9, from left to right, are TPP-derivatives in the following order: 2,4-dichlorobenzyl-TPP (black); 1-naphthylmethyl-TPP (inclined lines); 3-methylbenzyl-TPP (dotted lines); 2-chlorobenzyl-TPP (white); 2-butene-1,4-bis-TPP (horizontal lines). Cells were treated for 5 days in mammosphere media. Data are represented as mean+/−SEM.
For the 3D Spheroid (mammosphere) assay, a single cell suspension of MCF-7 cells was prepared using enzymatic (lx Trypsin-EDTA, Sigma Aldrich, #T3924) and manual disaggregation (25 gauge needle) to create a single cell suspension. […] Different TPP derivatives were previously diluted in the mammosphere media before addition of cells. […] After 5 days of culture, spheres >50 μm were counted using an eyepiece graticule and mammosphere numbers were normalized to control treatments (cells treated with vehicle only).

Row | Compound | Hoechst staining (%) [1] | ATP level (%) [1] | effect on ATP levels in initial screen (positive hit) [1] | effect on ATP levels in validation (FIGS. 2-4) [1] | effect on mitochondrial oxygen consumption (MCF-7 cells) | also measured
1 | c1ccc([P+](Cc2ccc(C[P+](c3ccccc3)(c3ccccc3)c3ccccc3)cc2)(c2ccccc2)c2ccccc2)cc1 [p-xylylenebis-TPP, p-xylylene-bis-TPP] | 69.1% | 43.9% | – | – | – | –
2 | N#CC[P+](c1ccccc1)(c1ccccc1)c1ccccc1 [cyanomethyl-TPP] | 97.2% | 95.1% | – | – | – | –
3 | CC1(C)CC(NC(=O)C[P+](c2ccccc2)(c2ccccc2)c2ccccc2)CC(C)(C)N1[O] [mito-TEMPO, (2-(2,2,6,6-Tetramethylpiperidin-1-oxyl-4-ylamino)-2-oxoethyl)triphenylphosphonium chloride, reference compound] | 100.0% | 100.0% | – | – | – | –
4 | C(=CC[P+](c1ccccc1)(c1ccccc1)c1ccccc1)C[P+](c1ccccc1)(c1ccccc1)c1ccccc1 [2-butene-1,4-bis-TPP] | – | – | significantly reduced ATP levels | depletes ATP levels, relative to cell number | effectively inhibits mitochondrial oxygen consumption | decrease of ATP levels in MCF-7 cancer cells ([1]; MCF-7, 1 μM, 72 h): ~85%; reduction of cell viability in MCF-7 cancer cells ([1]; MCF-7, 1 μM, 72 h): ~65%; fold more effective at reducing ATP levels in cancer cells, relative to normal fibroblasts ([1]; MCF-7 versus hTERT-BJ1, 1 μM): 4.7 fold; fold more effective at reducing cell viability in cancer cells (versus fibroblasts) ([1]; MCF-7 versus hTERT-BJ1, 1 μM): 2.8 fold; effect on cell viability in human fibroblasts [2]: no effect on cell viability; reduction of ATP levels in human fibroblasts [2]: 25%; IC50 (MCF-7 breast CSCs): < 0.5 µM
5 | c1ccc([P+](Cc2cccc3ccccc23)(c2ccccc2)c2ccccc2)cc1 [1-naphthylmethyl-TPP] | – | – | significantly reduced ATP levels | progressively deplete cellular ATP levels | effectively inhibit mitochondrial oxygen consumption | IC50 (MCF-7 breast CSCs): > 5 µM
6 | N#Cc1ccc(C[P+](c2ccccc2)(c2ccccc2)c2ccccc2)cc1 [4-cyanobenzyl-TPP] | 72.7% | 68.2% | – | – | – | –
7 | Clc1ccccc1C[P+](c1ccccc1)(c1ccccc1)c1ccccc1 [2-chlorobenzyl-TPP] | – | – | significantly reduced ATP levels | progressively deplete cellular ATP levels | effectively inhibit mitochondrial oxygen consumption | –
8 | Cc1cccc(C[P+](c2ccccc2)(c2ccccc2)c2ccccc2)c1 [3-methylbenzyl-TPP] | – | – | significantly reduced ATP levels | progressively deplete cellular ATP levels | effectively inhibit mitochondrial oxygen consumption | –
9 | Clc1ccc(C[P+](c2ccccc2)(c2ccccc2)c2ccccc2)c(Cl)c1 [2,4-dichlorobenzyl-TPP] | – | – | significantly reduced ATP levels | progressively deplete cellular ATP levels | effectively inhibit mitochondrial oxygen consumption | –
